Experimental data published in patent US9580437B2, “Triazolopyrimidine compounds and uses thereof” (Novartis AG, priority 2014, dated 2017).

Tests used:
[1] = test system: H3K27 methylation in G401 cell; assay: ELISA (H3K27 methylation) assay in G401 cells; format: cell-based, human; conditions: read-out: (c) IC50 ELISA Qualified
Method: (§1) A 6 μL solution of 3 μM of the peptide substrate H3K27Me0 (histone H3[21-44]-biotin) in reaction buffer was added to initiate each reaction. […] ELISA (H3K27 Methylation) Assay

EED (1-441)-His protein = EED (1-441)-His protein (Homo sapiens (Human), UniProt O75530); assay: EED-H3K27Me3 peptide competition binding assay by AlphaScreen; conditions: read-out: (a) IC50 EED Alphascreen binding Qualified
EED (1-441)-His protein, sequence (O75530 whole entry): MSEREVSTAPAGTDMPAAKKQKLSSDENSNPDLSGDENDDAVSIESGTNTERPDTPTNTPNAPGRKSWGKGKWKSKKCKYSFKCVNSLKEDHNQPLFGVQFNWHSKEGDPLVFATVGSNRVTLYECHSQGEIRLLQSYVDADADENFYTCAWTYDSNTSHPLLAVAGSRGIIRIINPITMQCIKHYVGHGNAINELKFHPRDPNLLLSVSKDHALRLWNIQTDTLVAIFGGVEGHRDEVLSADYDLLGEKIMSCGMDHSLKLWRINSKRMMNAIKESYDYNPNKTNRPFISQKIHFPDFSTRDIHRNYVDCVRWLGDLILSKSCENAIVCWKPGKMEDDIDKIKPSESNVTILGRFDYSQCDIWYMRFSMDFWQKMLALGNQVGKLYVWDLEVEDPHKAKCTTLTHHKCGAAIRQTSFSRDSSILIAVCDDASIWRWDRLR
Excerpt: EED-H3K27Me3 peptide competition binding assay by AlphaScreen (α-screen)

[2] = target: wild type PRC2 (wtPRC2) complex (Homo sapiens (Human), UniProt O75530); assay: EED LC-MS assay; format: biochemical; conditions: read-out: (b) IC50 EED LC-MS Qualified
wild type PRC2 (wtPRC2) complex, sequence (O75530 whole entry): as above
wild type PRC2 (wtPRC2) complex, sequence (Q15910 whole entry partner): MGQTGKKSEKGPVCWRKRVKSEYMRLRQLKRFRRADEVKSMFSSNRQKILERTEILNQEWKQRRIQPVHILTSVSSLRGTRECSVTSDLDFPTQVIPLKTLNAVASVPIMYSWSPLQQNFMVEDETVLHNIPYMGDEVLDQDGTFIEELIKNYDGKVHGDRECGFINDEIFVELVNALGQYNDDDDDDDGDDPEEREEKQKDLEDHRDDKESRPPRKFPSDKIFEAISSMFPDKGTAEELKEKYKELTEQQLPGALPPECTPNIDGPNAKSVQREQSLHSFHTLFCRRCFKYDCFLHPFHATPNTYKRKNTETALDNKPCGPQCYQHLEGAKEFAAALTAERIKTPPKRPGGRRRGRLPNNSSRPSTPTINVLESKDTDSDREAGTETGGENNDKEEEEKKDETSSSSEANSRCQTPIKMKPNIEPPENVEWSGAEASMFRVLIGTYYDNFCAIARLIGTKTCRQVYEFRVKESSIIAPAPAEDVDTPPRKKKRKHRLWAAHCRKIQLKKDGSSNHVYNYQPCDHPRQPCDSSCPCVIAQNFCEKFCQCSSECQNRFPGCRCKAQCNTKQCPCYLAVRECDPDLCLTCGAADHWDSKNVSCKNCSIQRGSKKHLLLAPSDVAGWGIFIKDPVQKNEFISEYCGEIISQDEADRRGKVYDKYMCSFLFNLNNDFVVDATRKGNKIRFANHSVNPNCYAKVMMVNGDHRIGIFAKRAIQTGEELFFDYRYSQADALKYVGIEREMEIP
wild type PRC2 (wtPRC2) complex, sequence (Q15022 whole entry partner): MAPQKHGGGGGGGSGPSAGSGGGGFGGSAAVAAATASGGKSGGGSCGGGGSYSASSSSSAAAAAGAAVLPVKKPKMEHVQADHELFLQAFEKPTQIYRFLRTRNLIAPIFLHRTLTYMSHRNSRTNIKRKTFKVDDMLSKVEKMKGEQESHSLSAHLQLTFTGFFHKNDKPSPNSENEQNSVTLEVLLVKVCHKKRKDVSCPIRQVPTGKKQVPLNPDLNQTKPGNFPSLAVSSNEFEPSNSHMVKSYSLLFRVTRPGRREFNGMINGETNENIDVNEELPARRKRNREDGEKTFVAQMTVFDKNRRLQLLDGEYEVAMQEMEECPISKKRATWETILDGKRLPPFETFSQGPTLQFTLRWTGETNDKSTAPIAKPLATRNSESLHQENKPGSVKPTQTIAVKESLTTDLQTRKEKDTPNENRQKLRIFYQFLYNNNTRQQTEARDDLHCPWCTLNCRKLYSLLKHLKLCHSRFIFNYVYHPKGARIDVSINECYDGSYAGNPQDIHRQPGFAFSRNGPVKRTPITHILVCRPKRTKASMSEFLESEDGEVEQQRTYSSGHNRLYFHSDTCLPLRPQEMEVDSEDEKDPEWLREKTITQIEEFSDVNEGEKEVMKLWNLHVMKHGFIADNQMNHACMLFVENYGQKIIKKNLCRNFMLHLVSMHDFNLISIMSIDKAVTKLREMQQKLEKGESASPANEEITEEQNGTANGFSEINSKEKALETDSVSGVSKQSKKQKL
Method: as §1

Row | IC50 [1] [nM] | IC50 (EED (1-441)-His protein) [nM] | IC50 [2] [nM] | Structure (SMILES)
1 | 2.6 |  |  | Cc1ncccc1-c1cnc(NCc2c(F)ccc3c2CCO3)n2cnnc12 [Example 2, N-((5-fluoro-2,3-dihydrobenzofuran-4-yl)methyl)-8-(2-methylpyridin-3-yl)-[1,2,4]triazolo[4,3-c]pyrimidin-5-amine]
2 |  | 6.1 | 6 | Fc1ccc2c(c1CNc1ncc(-c3ccccn3)c3nncn13)CCO2 [Example 231, N-((5-fluoro-2,3-dihydrobenzofuran-4-yl)methyl)-8-(pyridin-2-yl)-[1,2,4]triazolo[4,3-c]pyrimidin-5-amine]
3 |  | 6.2 | 13.1 | Cc1cncc(-c2cnc(NCc3c(F)ccc4c3CCO4)n3cnnc23)c1 [Example 232, N-((5-fluoro-2,3-dihydrobenzofuran-4-yl)methyl)-8-(5-methylpyridin-3-yl)-[1,2,4]triazolo[4,3-c]pyrimidin-5-amine]
4 |  | 3.9 | 11.5 | Cc1cn(-c2cnc(NCc3c(F)ccc4c3CCO4)n3cnnc23)cn1 [Example 233, N-((5-fluoro-2,3-dihydrobenzofuran-4-yl)methyl)-8-(4-methyl-1H-imidazol-1-yl)-[1,2,4]triazolo[4,3-c]pyrimidin-5-amine]
5 |  | 5.4 | 11.2 | OCc1ccc(-c2cnc(NCc3c(F)ccc4c3CCO4)n3cnnc23)cn1 [Example 234, (5-(5-(((5-fluoro-2,3-dihydrobenzofuran-4-yl)methyl)amino)-[1,2,4]triazolo[4,3-c]pyrimidin-8-yl)pyridin-2-yl)methanol]
6 |  | 39.9 | 65.3 | Fc1ccc2c(c1CNc1ncc(F)c3nncn13)CCO2 [Example 235, 8-fluoro-N-((5-fluoro-2,3-dihydrobenzofuran-4-yl)methyl)-[1,2,4]triazolo[4,3-c]pyrimidin-5-amine]
7 |  | 10.2 | 23.2 | Cc1cn(-c2cnc(NCc3c(F)ccc4c3CCO4)n3cnnc23)c(C)n1 [Example 236, 8-(2,4-dimethyl-1H-imidazol-1-yl)-N-((5-fluoro-2,3-dihydrobenzofuran-4-yl)methyl)-[1,2,4]triazolo[4,3-c]pyrimidin-5-amine]
8 |  | 3.1 | 10 | Fc1ccc2c(c1CNc1ncc(-n3cccn3)c3nncn13)CCO2 [Example 237, N-((5-fluoro-2,3-dihydrobenzofuran-4-yl)methyl)-8-(1H-pyrazol-1-yl)-[1,2,4]triazolo[4,3-c]pyrimidin-5-amine]
9 |  | 4.7 | 14.4 | Cc1ncn(-c2cnc(NCc3c(F)ccc4c3CCO4)n3cnnc23)n1 [Example 238, N-((5-fluoro-2,3-dihydrobenzofuran-4-yl)methyl)-8-(3-methyl-1H-1,2,4-triazol-1-yl)-[1,2,4]triazolo[4,3-c]pyrimidin-5-amine]
10 |  | 6.8 | 15.9 | Cc1cnn(-c2cnc(NCc3c(F)ccc4c3CCO4)n3cnnc23)c1 [Example 239, N-((5-fluoro-2,3-dihydrobenzofuran-4-yl)methyl)-8-(4-methyl-1H-pyrazol-1-yl)-[1,2,4]triazolo[4,3-c]pyrimidin-5-amine]
11 |  | 4.9 | 14.3 | Fc1ccc2c(c1CNc1ncc(-n3ccnc3)c3nncn13)CCO2 [Example 240, N-((5-fluoro-2,3-dihydrobenzofuran-4-yl)methyl)-8-(1H-imidazol-1-yl)-[1,2,4]triazolo[4,3-c]pyrimidin-5-amine]
12 |  | 11.3 | 30 | Fc1ccc2c(c1CNc1ncc(-n3cncn3)c3nncn13)CCO2 [Example 241, N-((5-fluoro-2,3-dihydrobenzofuran-4-yl)methyl)-8-(1H-1,2,4-triazol-1-yl)-[1,2,4]triazolo[4,3-c]pyrimidin-5-amine]
13 |  | 13.8 | 50 | Cc1ncccc1-c1cnc(NCc2c(F)ccc3c2C(O)CO3)n2cnnc12 (stereo not shown) [Example 242, 5-fluoro-4-(((8-(2-methylpyridin-3-yl)-[1,2,4]triazolo[4,3-c]pyrimidin-5-yl)amino)methyl)-2,3-dihydrobenzofuran-3-ol]
14 |  | 15.4 | 59 | OCc1ncccc1-c1cnc(NCc2c(F)ccc3c2C(O)CO3)n2cnnc12 (stereo not shown) [Example 243, 5-fluoro-4-(((8-(2-(hydroxymethyl)pyridin-3-yl)-[1,2,4]triazolo[4,3-c]pyrimidin-5-yl)amino)methyl)-2,3-dihydrobenzofuran-3-ol]
15 |  | 11.7 | 38.9 | Cc1c(-c2cnc(NCc3c(F)ccc4c3C(O)CO4)n3cnnc23)ccc[n+]1[O-] (stereo not shown) [Example 244, 3-(5-(((5-fluoro-3-hydroxy-2,3-dihydrobenzofuran-4-yl)methyl)amino)-[1,2,4]triazolo[4,3-c]pyrimidin-8-yl)-2-methylpyridine 1-oxide]
16 |  | 67.2 | 223 | Cc1ncc(-c2cnc(NCc3c(F)ccc4c3CCO4)n3cnnc23)n1C [Example 245, 8-(1,2-dimethyl-1H-imidazol-5-yl)-N-((5-fluoro-2,3-dihydrobenzofuran-4-yl)methyl)-[1,2,4]triazolo[4,3-c]pyrimidin-5-amine]
